In article PMC3252747 (Bioorganic & medicinal chemistry letters, 2009):

Molecular target: cloned h5-HT2A receptor (Homo sapiens, UniProt P28223)
Test: 5-HT2A competitive radioligand binding assay
Conditions: ratio of H1 Ki to 5-HT2A Ki

Sequence of cloned h5-HT2A receptor (P28223 whole entry): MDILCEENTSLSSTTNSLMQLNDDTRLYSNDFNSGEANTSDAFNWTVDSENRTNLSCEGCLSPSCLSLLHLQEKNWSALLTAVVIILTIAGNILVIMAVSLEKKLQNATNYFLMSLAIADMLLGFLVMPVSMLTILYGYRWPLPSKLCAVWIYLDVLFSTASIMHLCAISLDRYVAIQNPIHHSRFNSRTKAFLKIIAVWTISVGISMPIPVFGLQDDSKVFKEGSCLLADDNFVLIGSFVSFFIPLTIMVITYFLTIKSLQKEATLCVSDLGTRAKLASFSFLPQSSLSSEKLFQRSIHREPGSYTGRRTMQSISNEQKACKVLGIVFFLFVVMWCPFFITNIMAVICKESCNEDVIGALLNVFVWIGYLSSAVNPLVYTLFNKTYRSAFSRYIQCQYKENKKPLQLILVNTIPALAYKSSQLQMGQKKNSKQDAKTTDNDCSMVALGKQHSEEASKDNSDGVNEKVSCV

Structure (SMILES): COc1ccc2c3c(ccc2c1)Cc1ccccc1C3CN (stereo not shown) [Compound 2b, (7,12-dihydrotetraphene-3-methoxy-12-yl)methanamine]
- selectivity for 5-HT2A over the H1 receptor: 100 fold
